Assay results reported in patent US12396948B2, “Pharmaceutical compositions for the treatment of ophthalmic conditions” (Rhodes Technologies, priority 2017, dated 2025).

Assay: Forced degradation of API, drug product emulsion and placebo (Examples 30 and 32)
Format: physicochemical
Procedure: In this example, a forced degradation study was performed on the API, drug product emulsion, and a placebo. Only w/w % impurities are presented.
In this example, an additional forced degradation study was performed. Harsh conditions for oxidation (H2O2 concentration increased from 1% to 3%, exposure increased from 30 min to 2 hr) and conditions for photolytic degradation (exposure decreased from 24 hr to 40 min) were used in an additional forced degradation study.

[1] = Oxidation 3% H2O2 2 hr, 2nd study

CCCCCc1cc(O)c2c(c1)OC(C)(C)[C@@H]1CCC(C)=C[C@@H]21 [API]
% w/w Impurities RRT 0.46 [1]: 0.29 % w/w
% w/w Impurities RRT 0.56 [1]: 0.20 % w/w
% w/w Impurities RRT 0.93 [1]: 0.65 % w/w
% w/w Impurities Total [1]: 2.6 % w/w
Assay % LC [1]: 83.7 % LC
% Area (Photolytic 40 min, 2nd study): 79.1 % Area
% w/w Impurities CBD (Photolytic 40 min, 2nd study): 8.20 % w/w
% w/w Impurities CBN (Photolytic 40 min, 2nd study): 1.00 % w/w
% w/w Impurities RRT 0.30 (Photolytic 40 min, 2nd study): 0.07 % w/w
% w/w Impurities RRT 0.44 (Photolytic 40 min, 2nd study): 0.68 % w/w
% w/w Impurities RRT 0.46 (Photolytic 40 min, 2nd study): 1.35 % w/w
% w/w Impurities RRT 0.52 (Photolytic 40 min, 2nd study): 1.56 % w/w
% w/w Impurities RRT 0.56 (Photolytic 40 min, 2nd study): 0.17 % w/w
% w/w Impurities RRT 0.70 (Photolytic 40 min, 2nd study): 0.62 % w/w
% w/w Impurities RRT 0.82 (Photolytic 40 min, 2nd study): 0.22 % w/w
% w/w Impurities RRT 1.35 (Photolytic 40 min, 2nd study): 0.21 % w/w
% w/w Impurities RRT 1.40 (Photolytic 40 min, 2nd study): 0.21 % w/w
% w/w Impurities RRT 1.45 (Photolytic 40 min, 2nd study): 0.52 % w/w
% w/w Impurities RRT 1.48 (Photolytic 40 min, 2nd study): 0.40 % w/w
% w/w Impurities Total (Photolytic 40 min, 2nd study): 15.2 % w/w
Assay % LC (Photolytic 40 min, 2nd study): 57.5 % LC
% Area (Photolytic 24 hr, 1st study): 11.3 % Area
% w/w Impurities CBN (Photolytic 24 hr, 1st study): 6.75 % w/w
% w/w Impurities RRT 0.39 (Photolytic 24 hr, 1st study): 0.79 % w/w
% w/w Impurities RRT 0.40 (Photolytic 24 hr, 1st study): 0.66 % w/w
% w/w Impurities RRT 0.46 (Photolytic 24 hr, 1st study): 4.05 % w/w
% w/w Impurities RRT 0.49 (Photolytic 24 hr, 1st study): 2.55 % w/w
% w/w Impurities RRT 0.62 (Photolytic 24 hr, 1st study): 1.45 % w/w
% w/w Impurities RRT 0.75 (Photolytic 24 hr, 1st study): 0.25 % w/w
% w/w Impurities RRT 0.82 (Photolytic 24 hr, 1st study): 0.49 % w/w
% w/w Impurities RRT 1.19 (Photolytic 24 hr, 1st study): 0.83 % w/w
% w/w Impurities RRT 1.45 (Photolytic 24 hr, 1st study): 0.07 % w/w
% w/w Impurities Total (Photolytic 24 hr, 1st study): 17.9 % w/w
Assay % LC (Photolytic 24 hr, 1st study): 2.3 % LC
Impurity Change CBD (Stress condition Acid): 2 (2: Increase in API)
Impurity Change RRT 0.40 (Stress condition Acid): 2 (2: Increase in API)
Impurity Change RRT 0.46 (Stress condition Acid): — (Blank cell: no effect)
Impurity Change RRT 0.62 (Stress condition Acid): 2 (2: Increase in API)
Impurity Change RRT 0.93 (Stress condition Acid): — (Blank cell: no effect)
Impurity Change CBD (Stress condition Base): 2 (2: Increase in API)
Impurity Change CBN (Stress condition Base): — (Blank cell: no effect)
Impurity Change RRT 0.40 (Stress condition Base): 2 (2: Increase in API)
Impurity Change RRT 0.46 (Stress condition Base): — (Blank cell: no effect)
Impurity Change RRT 0.62 (Stress condition Base): 2 (2: Increase in API)
Impurity Change RRT 0.93 (Stress condition Base): — (Blank cell: no effect)
Impurity Change CBD (Stress condition Oxidation): 2 (2: Increase in API)
Impurity Change CBN (Stress condition Oxidation): — (Blank cell: no effect)
Impurity Change RRT 0.40 (Stress condition Oxidation): — (Blank cell: no effect)
Impurity Change RRT 0.46 (Stress condition Oxidation): — (Blank cell: no effect)
Impurity Change RRT 0.62 (Stress condition Oxidation): 2 (2: Increase in API)
Impurity Change RRT 0.93 (Stress condition Oxidation): — (Blank cell: no effect)
Impurity Change CBD (Stress condition Photolytic): 2 (2: Increase in API)
Impurity Change CBN (Stress condition Photolytic): 2 (2: Increase in API)
Impurity Change RRT 0.40 (Stress condition Photolytic): 2 (2: Increase in API)
Impurity Change RRT 0.46 (Stress condition Photolytic): 2 (2: Increase in API)
Impurity Change RRT 0.62 (Stress condition Photolytic): 2 (2: Increase in API)
Impurity Change CBD (Stress condition Thermal): 2 (2: Increase in API)
Impurity Change CBN (Stress condition Thermal): 2 (2: Increase in API)
Impurity Change RRT 0.46 (Stress condition Thermal): 2 (2: Increase in API)
% Area (Thermal 24 hr, 1st study): 77.5 % Area
% w/w Impurities CBD (Thermal 24 hr, 1st study): 2.43 % w/w
% w/w Impurities CBN (Thermal 24 hr, 1st study): 9.03 % w/w
% w/w Impurities RRT 0.30 (Thermal 24 hr, 1st study): 0.15 % w/w
% w/w Impurities RRT 0.44 (Thermal 24 hr, 1st study): 0.47 % w/w
% w/w Impurities RRT 0.46 (Thermal 24 hr, 1st study): 0.56 % w/w
% w/w Impurities RRT 0.52 (Thermal 24 hr, 1st study): 0.40 % w/w
% w/w Impurities RRT 0.56 (Thermal 24 hr, 1st study): 0.22 % w/w
% w/w Impurities RRT 0.70 (Thermal 24 hr, 1st study): 0.29 % w/w
% w/w Impurities RRT 1.19 (Thermal 24 hr, 1st study): 0.54 % w/w
% w/w Impurities RRT 1.27 (Thermal 24 hr, 1st study): 0.26 % w/w
% w/w Impurities RRT 1.40 (Thermal 24 hr, 1st study): 0.50 % w/w
% w/w Impurities RRT 1.45 (Thermal 24 hr, 1st study): 0.34 % w/w
% w/w Impurities RRT 1.48 (Thermal 24 hr, 1st study): 0.14 % w/w
% w/w Impurities Total (Thermal 24 hr, 1st study): 15.3 % w/w
Assay % LC (Thermal 24 hr, 1st study): 52.8 % LC
Assay decrease (second study, photolytic degradation, 40 min light exposure): ~30%
